Counter-ions that a name gives are not always drawn. Like-named read-outs stand apart in the source and are kept apart here.
Key:
[1] = system: mature stage V gametocytes (NF54 strain); assay: microbe, parasite or virus in culture; type: cell-based, Plasmodium falciparum; conditions: read-out: Stiffening IC50 (retention)
Description: (§1) Screening was conducted as previously described. Briefly, mature stage V gametocytes (NF54 strain) were cultured in vitro, then exposed to the explored compounds and filtered thereafter through layers of microspheres (microsphiltration)[25],[28]. Stiffening activity was determined by comparing gametocytemia up and downstream from the microsphere layers after filtration of drug-exposed gametocytes in 384-well plates using a vacuum manifold. Gametocytemia was assessed using DNA (Sybr Green) and erythrocyte membrane (CellMask) staining. Killing effect was assessed by MitoTracker staining. We screened two small libraries, specifically the Pathogen Box from the Medicine for Malaria Venture and the Kinase Inhibitors Box from GSK (400 and 350 compounds, respectively, Fig. 1A, B), and furthermore the larger ReFrame repurposing library (12,805 compounds, Fig. 1C).
(§2) The Pathogen Box library (400 compounds, provided by MMV-Medicine for Malaria Ventures, Geneva, Switzerland), the Kinase Inhibitors Box library (350 compounds, provided by GSK-Glaxo SmithKline DDW Unit, Tres Cantos, Spain), and the ReFrame library (12,805 compounds provided by the California Institute for Biomedical Research-Calibr, La Jolla, CA, USA) were used according to the providers’ instructions. DMSO-solubilized compounds (10 mM stock concentration) were loaded in 384-well plates (Seahorse, cat. no. 201035−100). Two columns were left empty for the controls. For each compound, 5 nL were pre-spotted in a single well to reach a final concentration of 1.11 μM. The final volume for each well was 45 μl. Controls were prepared as follows: 22.5 nL of DMSO were loaded in 16 wells as negative controls (0.05% final concentration); 22.5 nL of NITD609 (provided by MMV, Geneva, Switzerland) 1 mM were loaded in 8 wells (0.5 μM final concentration), 17 nL of Calyculin A (Sigma, cat. no. C5552) […] were loaded in 6 wells (75 nM final concentration) and 225 nL of Gentian Violet (MolPort, cat. no. 002-133-551) 10 mM were loaded in the remaining 2 wells (50 μM final concentration). Plates were prepared in triplicate for the Pathogen Box and sextuplicate for the Kinase Inhibitors Box.
(§3) Plasmodium falciparum NF54 strain parasites (used for screening campaign) were cultured at 4% hematocrit in RBCs from informed blood donors (blood group A) as previously described. Parasites were taken from the -80 °C freezer, then rapidly melt for 1 minute in a 37 °C water bath. A saline solution was gently added to avoid the lysis. Firstly, NaCl dissolved at 12% in distilled water (1/5 of the volume measured in the cryovial) and then NaCl dissolved at 1.6% (9 times the cryovial’s volume). After that, fresh RBCs were added to allow parasites re-growth. Infected RBCs were kept in RPMI medium (Sigma-Aldrich, cat. no. R4130), supplemented with 10% of decomplemented human serum, hypoxanthine 50 mg/l (Sigma-Aldrich, cat. no. H9636). Biobank of Castilla y Leon and Centro de Transfusiones de Madrid as providers of human red blood cell concentrates. The production of gametocytes was induced from a 0.5% ring-stage parasitemia (day 0). Medium was changed daily to induce gametocytes differentiation, as previously described. At day 17, gametocytes were concentrated using a density gradient medium (NycoPrep 1.077, Progen cat. no. 1114550)[27]. Parasitemia was adjusted by FACS (SYBR-Green and MitoTracker double staining, 3–5% targeted). Hematocrit was adjusted to 0.5% by adding fresh RBCs and controlled by manual counting in a Neubauer chamber (Celeromics, cat. no. 717810). Finally, the gametocyte suspension was poured (45 μL/well) into the compound-containing 384-well microplate, then incubated 24 hours both for the screening campaign and the dose-response analysis. Both asexual and sexual stages were cultivated in RPMI 1640 supplemented with 25 mM HEPES, 50 mg/L hypoxanthine, 50 μg/mL gentami-cin, 10% pooled heat-inactivated human serum (A^+).

[2] = Hit scoring on safety in human subjects and pharmacokinetics; conditions: for Score (PK): peak plasma concentration vs IC50
Text: Hits from the ReFrame library were further selected based on safety, preferably oral administration (high score if oral), and potential availability for widespread use.

[3] = system: HEK293T; conditions: cited from earlier work
[4] = system: HepG2; conditions: cited from earlier work
[5] = system: P.falciparum Dd2; design: method as in previously published reports (Table S1 legend); conditions: 72 h; results in previous assays; ref previously published reports (Table S1 legend); read-out: 72-h Dd2-SybrGreen PBFS assay IC50; cited from earlier work
[6] = system: mature stage V gametocytes (NF54 strain); assay: High-throughput screening: killing effect by MitoTracker staining, primary screening at 1.11 µM and dose-response analysis; type: cell-based, Plasmodium falciparum; conditions: read-out: Killing IC50
Description: as §1, §2, §3

[7] = Plasmodium falciparum, NF54, 24 h
[8] = read-out: Cellular cytotoxicity assay IC50, HEK293T, 72 h, first value of cell, ref previously published reports (Table S1 legend)
[9] = read-out: Cellular cytotoxicity assay IC50, HepG2, 72 h, second value of cell, ref previously published reports (Table S1 legend)
[10] = stage V gametocytes NF54, 24 h, dose-response analysis, N/A = not active in dose-response analysis
[11] = Plasmodium falciparum, NF54, 24 h, stage V gametocytes NF54, 24 h, dose-response analysis, N/A = not active in dose-response analysis

| Compound | IC50 [1, 7] [nM] | Score (PK) [2] | IC50 [3, 8] [nM] | IC50 [4, 9] [nM] | IC50 [1, 10] [nM] | IC50 [5] [nM] | IC50 [3] [nM] | IC50 [6, 10] [nM] | IC50 [4] [nM] | other results |
| --- | --- | --- | --- | --- | --- | --- | --- | --- | --- | --- |
| C[C@H]1O[C@@H](O[C@H]2[C@@H](O)C[C@H](O[C@H]3[C@@H](O)C[C@H](O[C@H]4CC[C@@]5(C)[C@H](CC[C@@H]6[C@@H]5CC[C@]5(C)[C@@H](C7=CC(=O)OC7)CC[C@]65O)C4)O[C@@H]3C)O[C@@H]2C)C[C@H](O)[C@@H]1O [Digitoxin] | 10600 | 0 | 8 | 11 |  |  |  |  |  | Score (safety) ([2]; human): 3 |
| CC1=C(C)C(=O)C(CCCCCCCCCC[P+](c2ccccc2)(c2ccccc2)c2ccccc2)=CC1=O [SkQ1] |  |  |  |  | 1900 | 1050 | 778 | 3850 | 3130 |  |
| O=C(NO)c1cnc(N2C[C@@H]3[C@H](C2)[C@H]3NCc2ccc3cc(F)ccc3n2)nc1 [CHR-3996] | 7230 | 0 |  |  |  | 15 | 728 |  | 127 | Score (safety) [2]: 0; IC50 [6, 11]: 70 nM |
| CO[C@H]1/C=C\C=C(/C)C(=O)NC2=CC(=O)C(NCCN(C)C)=C(C[C@@H](C)C[C@H](OC)[C@H](O)[C@@H](C)/C=C(\C)[C@@H]1OC(N)=O)C2=O [Alvespimycin hydrochloride] | 960 |  | 98 | 14 |  | 272 |  |  |  | IC50 ([6]; Plasmodium falciparum, stage V gametocytes NF54, 24 h, dose-response analysis, N/A = not active in dose-response analysis): 1750 nM |
| COC(=O)C[C@](O)(CCCC(C)(C)O)C(=O)O[C@@H]1C(OC)=C[C@]23CCCN2CCc2cc4c(cc2[C@H]13)OCO4 [Homoharringtonine] | 2300 |  |  |  |  | 7 | 32 |  | 122 | IC50 [6, 11]: 1730 nM |
| CC[C@H]1CN2CCc3cc(OC)c(OC)cc3[C@@H]2C[C@@H]1C[C@H]1NCCc2cc(O)c(OC)cc21 [Cephaeline] | 3800 |  | 14 | 62 |  | 28 |  |  |  | IC50 [6, 7]: 1000 nM |
| Tyrothricin |  |  |  |  |  |  | 1800 |  | 1900 |  |
| O=C(NCCN1CCCC1)c1cc(-c2ccc(CN3CCOCC3)cc2)nc2ccc(F)cc12 [DDD498] | 2600 | 0 |  |  |  | 4 |  |  |  | Score (safety) [2]: 0; IC50 [6, 11]: 1700 nM |
| C(=N\NC1=NCCN1)/c1c2ccccc2c(/C=N/NC2=NCCN2)c2ccccc12 [Bisantrene HCl] |  |  | 54 | 62 |  | 65 |  | 2200 |  |  |
| CC(=O)O[C@H]1C[C@H](O[C@H]2[C@@H](O)C[C@H](O[C@H]3[C@@H](O)C[C@H](OC4CC[C@@]5(C)[C@H](CC[C@@H]6[C@@H]5CC[C@]5(C)[C@@H](C7=CC(=O)OC7)CC[C@]65O)C4)O[C@@H]3C)O[C@@H]2C)O[C@H](C)[C@H]1O[C@@H]1O[C@H](CO)[C@@H](O)[C@H](O)[C@H]1O (some centres unmarked) [Lanatoside A] | 860 | 0 | 171 | 136 |  | 9950 |  |  |  | Score (safety) ([2]; human): 0 |
| Cc1nc2c(s1)C(O)=C/C(=N\CCN(C)C)C2=O [BN-82685] | 4600 |  | 2920 | 1890 |  | 1740 |  |  |  | IC50 [6, 11]: 2800 nM |
| C[C@@H]1O[C@@H](O[C@H]2CC[C@]3(C=O)[C@H]4CC[C@]5(C)[C@@H](C6=CC(=O)OC6)CC[C@]5(O)[C@@H]4CC[C@]3(O)C2)[C@H](O)[C@H](O)[C@H]1O [Convallatoxin] | 50 |  | 26 | 33 |  | 16 |  |  |  |  |
| CC(=O)[O][Hg][c]1cc(C(C)(C)CC(C)(C)C)ccc1O [Acetomeroctol] |  |  | 462 | 1920 | 5000 |  |  | 7200 |  |  |
| COc1cccc2c1ccc1nc3cccc(C(=O)N[C@H](C)CN(C)C)c3nc12 [MLN 576] |  | 0 |  |  | 5020 | 2040 | 218 |  | 413 | Score (safety) [2]: 0 |
| CO[C@H]1C[C@H](O[C@H]2CC[C@]3(C=O)[C@H]4CC[C@]5(C)[C@@H](C6=CC(=O)OC6)CC[C@]5(O)[C@@H]4CC[C@]3(O)C2)O[C@H](C)[C@H]1O [Cymarine] | 330 | 0 | 71 | 102 |  | 9950 |  |  |  | Score (safety) ([2]; human): 0 |
| COc1cccc2c1C(=O)c1c(O)c3c(c(O)c1C2=O)C[C@@](O)(C(C)=O)C[C@@H]3O[C@H]1C[C@H](N)[C@H](O)[C@H](C)O1 [Daunorubicin] | 12000 |  |  |  |  |  | 39 |  | 126 |  |
| CN(C)CCOc1ccc2[nH]c(C(=O)NCC#Cc3ccc(C(=O)NO)cc3)cc2c1 [CRA-026440] |  |  |  |  | 550 | 63 | 81 | 16000 | 11 |  |
| Cc1cc(Nc2ncc(Cl)c(Nc3ccccc3S(=O)(=O)C(C)C)n2)c(OC(C)C)cc1C1CCNCC1 [Ceritinib] | 10500 | 0 |  |  |  |  |  |  |  | Score (safety) [2]: 0; IC50 [6, 11]: 10000 nM |
| COC(=O)C1=C(C)NC(C)=C(C(=O)OC)C1c1cc([N+](=O)[O-])ccc1OCCCCNCC(O)COc1ccccc1 (centres unmarked) [YM 161514] |  | 0 |  |  | 3600 | 2260 |  | 5550 | 3970 | Score (safety) [2]: 0 |
| CCCCC(CC)CNC(=N)NC(=N)NCCCCCCNC(=N)NC(=N)NCC(CC)CCCC (centres unmarked) [Alexidine dihydrochloride] | 550 |  | 3330 | 3060 |  | 32 |  |  |  | IC50 [6, 11]: 41000 nM |
| CC1CCC(C(C)C)C(OC(=O)C[N+](C)(C)CCCCCCCCCC[N+](C)(C)CC(=O)OC2CC(C)CCC2C(C)C)C1 (centres unmarked) [Decamethoxine] |  |  |  |  | 1000 | 61 | 3300 | 8100 | 4300 |  |
| COc1ccc(NC(=O)N2CCCCN3[C@H](CN(C)C)[C@H](c4ccc(C#Cc5ccccc5)cc4)[C@@H]3C2)cc1 [BRD-7929] |  | 0 |  |  | 3800 |  |  | 2200 |  | Score (safety) [2]: 0 |
| CO[C@H]1[C@H](O)[C@H](O[C@H]2CC[C@@]3(C=O)[C@H](CC[C@@H]4[C@@H]3CC[C@]3(C)[C@@H](C5=CC(=O)OC5)CC[C@]43O)C2)O[C@@H](C)[C@@H]1O [Peruvoside] | 2680 |  | 20 | 32 |  | 9950 |  |  |  |  |
